From US6924309B2 (Children, Youth and Women's Health Service Incorporated, priority 1999, dated 2005)
Like-named read-outs stand apart in the source and are kept apart here.

How the values were obtained:
[1] = Thin film autoxidation of arachidonic acid with compounds 16-19 (HPLC)
Text: Subsequently, the autoxidation of compounds 16-19 and their effects on the autoxidation of arachidonic acid were investigated. In these experiments, a thin film assay method was employed. For each reaction, arachidonic acid was mixed with one of the synthetic compounds 16, 17, 18 or 19 at 1:1 ratio with or without the radical initiator, azobisisobutyronitrile (AIBN). A reverse phase HPLC method was used to simultaneously measure the relative amounts of arachidonic acid and the synthetic compounds 16, 17, 18 or 19 recovered following 60 or 70 hours or 7 days of thin film autoxidation.

[2] = Petri-dish thin film autoxidation of arachidonic acid with thia fatty acids and sulfides (HPLC); settings: for Arachidonic acid (%) recovered following autoxidation: arachidonic acid alone
Procedure: A stock solution in dichioromethane (2 ml) containing arachidonic acid 1 (18 mg) and 3-[(3Z,6Z)-nona-3,6dienylthio]propionic acid 106 (18 mg) was prepared with lauric acid (18 mg) as an internal standard. Samples of the stock solution (100 μl) were added to glass Petri-dishes followed by ethanol (400 μl). After evaporation of the solvent, a well-distributed thin film was formed on each Petri-dish. The Petri-dishes were placed in a desiccator, which was then evacuated, filled with oxygen and stored in the darkness. Dishes were removed from the desiccator after 1, 2, 3, 5 and 7 days. The mixture on each dish was redissolved in diethyl ether and transferred to a 2 ml vial. After evaporation of the solvent, the residue was dissolved in the HPLC mobile phase (100 μl) and 10% of the solution was analysed by HPLC using a reverse phase column (octadecylsilane) (4.6 mm×250 mm, 3 μm) and a refractive index detector.
Autoxidation of arachidonic acid was conducted in the presence of compound 19 and lauric acid. Stock solutions of arachidonic acid, compound 19 and lauric acid in dichloromethane with equal concentrations were added to a 25 ml round-bottomed flask, and the solvent was evaporated to leave a thin film on the internal surface of the flask. The flask was then filled with oxygen and kept in the dark. The percentages of arachidonic acid and compound 19 remaining after 7 days were measured by HPLC. The same assay was carried out simultaneously with several flasks but the results were not reproducible. The variation was attributed to differences in oxygen concentration and the surface area of the thin films formed in the flasks. Therefore, in order to establish a reproducible assay for the analysis of the autoxidation of arachidonic acid, Petri-dishes with uniform size (80 mm in diameter) were used instead of flasks for thin film formation and the oxidation was carried out by placing the Petri-dishes in a dessicator filled with oxygen. To assess this method, thin firms of arachidonic acid with lauric acid as a standard were prepared on six Petri-dishes using identical treatment, and then subjected to oxidation in the same dessicator filled with oxygen. After 24 h, the percentage of arachidonic acid recovered following autoxidation in each Petri-dish was determined by HPLC. […] The advantage of using a Petri-dish over a flask is that the thin films on each Petri-dish are spread over the same area, and each Petri-dish is exposed to oxygen to the same extent.
Using the Petri-dish assay method, the effects of the thia PUFAs and sulfides 106 and 108-111, along with compounds 18, 19 and 3-[(Z,Z,Z)-(octadeca-9,12,15-trienylthio)] propionic acid 112 which were available in the laboratory, on the autoxidation of arachidonic acid, were examined. In addition, the stability of these compounds in the presence of arachidonic acid was also investigated. Arachidonic acid and lauric acid as a standard were mixed with each sulfur compound at different ratios and the mixtures were subjected to thin film autoxidation. The mixtures were analysed by HPLC after 1,2,3,5 and 7 days.

[3] = 1:1 ratio with arachidonic acid
[4] = compound at one-tenth that of arachidonic acid
[5] = ratio arachidonic acid:compound 1:1, 1 day
[6] = ratio arachidonic acid:compound 1:1, 2 days
[7] = ratio arachidonic acid:compound 1:1, 3 days
[8] = ratio arachidonic acid:compound 1:1, 5 days
[9] = ratio arachidonic acid:compound 1:1, 7 days
[10] = ratio arachidonic acid:compound 2:1, 1 day
[11] = ratio arachidonic acid:compound 2:1, 2 days
[12] = ratio arachidonic acid:compound 2:1, 3 days
[13] = ratio arachidonic acid:compound 2:1, 5 days
[14] = ratio arachidonic acid:compound 2:1, 7 days
[15] = ratio arachidonic acid:compound 10:1, 1 day
[16] = ratio arachidonic acid:compound 10:1, 2 days
[17] = ratio arachidonic acid:compound 10:1, 3 days
[18] = ratio arachidonic acid:compound 10:1, 5 days
[19] = ratio arachidonic acid:compound 10:1, 7 days

Compound | Antioxidant effect on autoxidation of arachidonic acid (in words) [2, 3] | Antioxidant effect on autoxidation of arachidonic acid (in words) [2, 4] | Arachidonic acid (%) recovered following autoxidation in the presence of the compound [2, 5] [%] | Compound (%) recovered following autoxidation with arachidonic acid [2, 5] [%] | Arachidonic acid (%) recovered following autoxidation in the presence of the compound [2, 6] [%] | Compound (%) recovered following autoxidation with arachidonic acid [2, 6] [%] | Arachidonic acid (%) recovered following autoxidation in the presence of the compound [2, 7] [%] | Compound (%) recovered following autoxidation with arachidonic acid [2, 7] [%] | Arachidonic acid (%) recovered following autoxidation in the presence of the compound [2, 8] [%] | Compound (%) recovered following autoxidation with arachidonic acid [2, 8] [%] | Arachidonic acid (%) recovered following autoxidation in the presence of the compound [2, 9] [%] | Compound (%) recovered following autoxidation with arachidonic acid [2, 9] [%] | Arachidonic acid (%) recovered following autoxidation in the presence of the compound [2, 15] [%] | Compound (%) recovered following autoxidation with arachidonic acid [2, 15] [%] | Arachidonic acid (%) recovered following autoxidation in the presence of the compound [2, 16] [%] | Compound (%) recovered following autoxidation with arachidonic acid [2, 16] [%] | Arachidonic acid (%) recovered following autoxidation in the presence of the compound [2, 17] [%] | Arachidonic acid (%) recovered following autoxidation in the presence of the compound [2, 18] [%] | Arachidonic acid (%) recovered following autoxidation in the presence of the compound [2, 19] [%] | also measured
CC/C=C\C/C=C\C/C=C\CCCCCCCCOCC(=O)O [Compound 17, (Z,Z,Z)-(octadeca-9,12,15-trienyloxy) acetic acid] |  |  |  |  |  |  |  |  |  |  |  |  |  |  |  |  |  |  |  | Percentage of arachidonic acid recovered in the presence of the compound ([1]; ratio 1:1, 10% AIBN 60 h): 44%; Percentage of compound recovered (with arachidonic acid) ([1]; ratio 1:1, 10% AIBN 60 h): 49%; Percentage of arachidonic acid recovered in the presence of the compound ([1]; ratio 1:1, no additive 70 h): 92%; Percentage of compound recovered (with arachidonic acid) ([1]; ratio 1:1, no additive 70 h): 102%; Percentage of arachidonic acid recovered in the presence of the compound ([1]; ratio 1:1, no additive 7 day): 30%; Percentage of compound recovered (with arachidonic acid) ([1]; ratio 1:1, no additive 7 day): 41%; Autoxidation of arachidonic acid in the presence of the compound (in words) ([1]; ratio 1:1, with or without AIBN): substantial degree of autoxidation
CCCCC/C=C\C/C=C\C/C=C\C/C=C\CCCC(=O)O [Arachidonic acid, arachidonic acid, reference compound] |  |  |  |  |  |  |  |  |  |  |  |  |  |  |  |  |  |  |  | Arachidonic acid (%) recovered following autoxidation ([2]; 1 day): 91%; Arachidonic acid (%) recovered following autoxidation ([2]; 2 days): 20%; Arachidonic acid (%) recovered following autoxidation ([2]; 3 days): 16%; Arachidonic acid (%) recovered following autoxidation ([2]; 5 days): 12%
CC/C=C\C/C=C\CCSCCC(=O)O [Compound 106] | almost complete prevention of autoxidation | very slow over the first 3 days | 99 | 98 | 98 | 96 | 99 | 98 | 100 | 97 | 101 | 98 | 101 | 94 | 101 | 84 | 99 | 79 | 16 | Antioxidant effect on autoxidation of arachidonic acid (in words) [2]: effective antioxidants; Arachidonic acid (%) recovered following autoxidation in the presence of the compound [2, 10]: 98%; Compound (%) recovered following autoxidation with arachidonic acid [2, 10]: 97%; Arachidonic acid (%) recovered following autoxidation in the presence of the compound [2, 11]: 99%; Compound (%) recovered following autoxidation with arachidonic acid [2, 11]: 98%; Arachidonic acid (%) recovered following autoxidation in the presence of the compound [2, 12]: 98%; Compound (%) recovered following autoxidation with arachidonic acid [2, 12]: 97%; Arachidonic acid (%) recovered following autoxidation in the presence of the compound [2, 13]: 99%; Compound (%) recovered following autoxidation with arachidonic acid [2, 13]: 97%; Arachidonic acid (%) recovered following autoxidation in the presence of the compound [2, 14]: 99%; Compound (%) recovered following autoxidation with arachidonic acid [2, 14]: 100%; Compound (%) recovered following autoxidation with arachidonic acid [2, 17]: 59%
CCCCC/C=C\C/C=C\C/C=C\C/C=C\CCCCSCCC [Compound 110, propyl(all-Z)-eicosa-5,8,11,14-tetraenylpropyl sulfide] | effectively inhibit | still effective antioxidiants |  |  |  |  | 100 | 99 |  |  | 100 | 100 | 97 | 85 | 89 | 22 | 67 | 24 | 10 | 
CCCCC/C=C\C/C=C\C/C=C\CCCCCOCC(=O)O [Compound 16, (Z,Z,Z)-(octadeca-6,9,12-trienyloxy) acetic acid] |  |  |  |  |  |  |  |  |  |  |  |  |  |  |  |  |  |  |  | Percentage of arachidonic acid recovered in the presence of the compound ([1]; ratio 1:1, 10% AIBN 60 h): 17%; Percentage of compound recovered (with arachidonic acid) ([1]; ratio 1:1, 10% AIBN 60 h): 11%; Percentage of arachidonic acid recovered in the presence of the compound ([1]; ratio 1:1, no additive 70 h): 97%; Percentage of compound recovered (with arachidonic acid) ([1]; ratio 1:1, no additive 70 h): 88%; Percentage of arachidonic acid recovered in the presence of the compound ([1]; ratio 1:1, no additive 7 day): 23%; Percentage of compound recovered (with arachidonic acid) ([1]; ratio 1:1, no additive 7 day): 27%
CC/C=C\C/C=C\C/C=C\CCCCCCCCSCCC(=O)O [Compound 112, 3-[(Z,Z,Z)-(octadeca-9,12,15-trienylthio)]-propionic acid] | effective as an antioxidant | less effective than either compound 19 or 106 | 100 | 100 | 99 | 98 | 98 | 97 | 99 | 97 | 93 | 86 | 82 | 25 | 33 |  | 17 | 4 |  | Antioxidant effect on autoxidation of arachidonic acid (in words) [2]: effective antioxidants
CCCCCCCCCCCCCCSCCC [Compound 111, propyltetradecyl sulfide] | effectively inhibit | still effective antioxidiants | 100 | 101 | 98 | 91 | 98 | 92 | 98 | 92 | 97 | 90 | 99 | 81 | 99 | 63 | 97 | 68 | 17 | Compound (%) recovered following autoxidation with arachidonic acid [2, 17]: 38%
